In one assay the test system is K. pneumoniae ATCC 10031. Nature of the assay: Intrinsic MIC assay (broth microdilution), K. pneumoniae. Type of assay: cell-based, Klebsiella pneumoniae. Conditions: for MIC: Klebsiella pneumoniae. Here is the method:
(§1) MIC assays were conducted in accordance with Clinical and Laboratory Standards Institute (CLSI) guidelines for broth microdilution.
(§2) The intrinsic MIC of the experimental EPIs was tested with the method described. The 2-fold serial dilution begins with 100 μg/mL of tested compound in the first column of the 96-well plates. The following Gram-negative bacterial strains were included in these assays: • Escherichia coli ATCC 25922 • Klebsiella pneumoniae ATCC 13883 and ATCC 10031 • Pseudomonas aeruginosa ATCC 27853. • Pseudomonas aeruginosa PAO1 • Acinetobacter baumannii ATCC 19606

In the next assay the test system is E. coli ATCC 25922. In words: Intrinsic MIC assay (broth microdilution), E. coli. The class given is cell-based, Escherichia coli. Conditions: for MIC: Escherichia coli. On the procedure:
as §1, §2

The subject of the next assay is A. baumannii ATCC 19606. In words: Intrinsic MIC assay (broth microdilution), A. baumannii. The note with it: for MIC: Acinetobacter baumannii. Type of assay: cell-based, Acinetobacter baumannii. Here is the method: as §1, §2
The test system of assay [1] is P. Aeruginosa PAO1. In words: MIC assay in the presence of a bacterial efflux pump inhibitor (EPI), P. aeruginosa PAO1. Type of assay: cell-based, Pseudomonas aeruginosa. Conditions: in the presence of 12.5 μg/ml of N-(((2S,4R)-4-(aminomethyl)pyrrolidin-2-yl)methyl)-6-(4-fluorophenyl)-1H-indole-2-carboxamide. On the procedure:
The ability of a compound to produce an antibiotic effect can be determined using a method as described in Example 11. Data for representative compounds used in combination with the bacterial efflux pump inhibitor (EPI) N-(((2S,4R)-4-(aminomethyl)pyrrolidin-2-yl)methyl)-6-(4-fluorophenyl)-1H-indole-2-carboxamide is shown in Table 1.
as §1
The EPI assay for the purposes of these studies represents a MIC assay in which the MIC of the antibiotic against the bacteria is tested in the presence of an experimental efflux pump inhibitor (EPI). The highest concentration of the EPI present in the assay typically is ½ of the intrinsic MIC of the compound. […] Using serial dilutions of the EPI, its enhancement of antibiotic activity was then evaluated. The relative EPI activity was decided by comparing the MIC of the antibiotic in the presence of the EPI compound with the intrinsic MIC of the antibiotic alone. For comparative purposes, we generally used EPIs at concentration of 12.5 and 6.25 μg/ml against varying concentration of our test antibiotic.

The subject of assay [2] is P. Aeruginosa PAO1. Nature of the assay: Intrinsic MIC assay (broth microdilution), P. aeruginosa PAO1. Type of assay: cell-based, Pseudomonas aeruginosa. Conditions: for MIC: Pseudomonas aeruginosa, read-out: Intrinsic MIC. On the procedure:
as §1, §2

Setting [3] is: P. Aeruginosa PAO1, without EPI.
Where [4] appears, read: ATCC10031, K. pneumoniae ATCC 10031, read-out: Intrinsic MIC.
Where [5] appears, read: ATCC25922, E. coli ATCC 25922, read-out: Intrinsic MIC.
Setting [6] is: ATCC19606, A. baumannii ATCC 19606, read-out: Intrinsic MIC.
[7] abbreviates: 18 h, P. Aeruginosa PAO1, without EPI.

Values after ≈ are worked out from the molar mass of the structure shown. Read-outs that look alike come from different tables or passages of the source.

In the case of “1-(5-Bromo-1H-indol-2-yl)ethane-1,2-diamine [Example 6]”, the “Intrinsic MIC” value in the assay with K. pneumoniae ATCC 10031 (K. pneumoniae ATCC 10031) is 64 µg/mL; with E. coli ATCC 25922 (E. coli ATCC 25922) it was 128 µg/mL; in the assay with A. baumannii ATCC 19606 (A. baumannii ATCC 19606) it was 128 µg/mL; in the assay with P. Aeruginosa PAO1 [2] (setting [3]), 256 µg/mL. For the same molecule, in the assay with P. Aeruginosa PAO1 [1], the MIC in the Presence of EPI* was determined as 128 µg/mL.
Turning to `CC(N)c1cc2cc(Br)ccc2[nH]1` (stereo not drawn) [Example 1, 1-(5-Bromo-1H-indol-2-yl)ethan-1-amine], the minimum inhibitory concentration (MIC) in the assay with K. pneumoniae ATCC 10031 (setting [4]) was determined as 64 µg/mL (≈ 268 µM); in the assay on E. coli ATCC 25922 (setting [5]), 128 µg/mL (≈ 535 µM); with A. baumannii ATCC 19606 (setting [6]), 128 µg/mL (≈ 535 µM). In addition, the MIC in the Presence of EPI* in the assay with P. Aeruginosa PAO1 [1] was 8 µg/mL. In the assay on P. Aeruginosa PAO1 [2] (setting [3]), this molecule gave an Intrinsic MIC of 128 µg/mL.
On to `CCCCC(N)c1cc2cc(Br)ccc2[nH]1` (stereo not drawn) [Example 2, 1-(5-Bromo-1H-indol-2-yl)pentan-1-aminium chloride], for which the MIC was 16 µg/mL in the assay with K. pneumoniae ATCC 10031 (ATCC10031, read-out: Intrinsic MIC); 16 µg/mL with E. coli ATCC 25922 (ATCC25922, read-out: Intrinsic MIC); 32 µg/mL in the assay with A. baumannii ATCC 19606 (ATCC19606, read-out: Intrinsic MIC); more than 256 µg/mL in the assay with P. Aeruginosa PAO1 [2] (PAO1, 18 h). The MIC in the Presence of EPI* in the assay on P. Aeruginosa PAO1 [1] was 64 µg/mL.
Turning to `CNC(C)c1cc2cc(Br)ccc2[nH]1` (stereo not drawn) [Example 3, 1-(5-Bromo-1H-indol-2-yl)-N-methylethan-1-amine], the MIC was 128 µg/mL (≈ 506 µM) in the assay with K. pneumoniae ATCC 10031 (setting [4]), 256 µg/mL (≈ 1010 µM) in the assay with E. coli ATCC 25922 (setting [5]), 64 µg/mL (≈ 253 µM) with A. baumannii ATCC 19606 (setting [6]) and more than 256 µg/mL in the assay on P. Aeruginosa PAO1 [2] (setting [7]). In addition, the MIC in the Presence of EPI* with P. Aeruginosa PAO1 [1] is 64 µg/mL.
Consider `CC(N)c1cc2ccccc2[nH]1` (stereo not drawn) [Example 4, 1-(1H-Indol-2-yl)ethan-1-amine], for which the MIC in the assay on K. pneumoniae ATCC 10031 (setting [4]), with E. coli ATCC 25922 (setting [5]), in the assay with A. baumannii ATCC 19606 (setting [6]) and in the assay with P. Aeruginosa PAO1 [2] (setting [7]) was more than 256 µg/mL throughout. In addition, the MIC in the Presence of EPI* in the assay with P. Aeruginosa PAO1 [1] is 128 µg/mL.
In the case of `CC(N)c1cc2cc(Br)ccc2n1C` (stereo not drawn) [Example 5, 1-(5-Bromo-1-methyl-1H-indol-2-yl)ethan-1-amine], the MIC in the assay with K. pneumoniae ATCC 10031 (setting [4]) was 64 µg/mL (≈ 253 µM); with E. coli ATCC 25922 (setting [5]) it was 128 µg/mL (≈ 506 µM); in the assay with A. baumannii ATCC 19606 (setting [6]) it was 128 µg/mL (≈ 506 µM); in the assay with P. Aeruginosa PAO1 [2] (setting [7]) it was more than 256 µg/mL. In addition, the MIC in the Presence of EPI* in the assay on P. Aeruginosa PAO1 [1] amounted to 64 µg/mL.
Turning to `CC(N)c1cc2cc(F)ccc2[nH]1` (stereo not drawn) [Example 7, 1-(5-Fluoro-1H-indol-2-yl)ethan-1-amine], the MIC with K. pneumoniae ATCC 10031 (setting [4]), in the assay with E. coli ATCC 25922 (setting [5]) and in the assay with A. baumannii ATCC 19606 (setting [6]) was more than 256 µg/mL in each case. Besides, the MIC in the Presence of EPI* with P. Aeruginosa PAO1 [1] was found to be 16 µg/mL. This molecule gave an Intrinsic MIC with P. Aeruginosa PAO1 [2] (setting [3]) of 256 µg/mL.
As for `COc1ccc2[nH]c(C(C)N)cc2c1` (stereo not drawn) [Example 8, 1-(5-Methoxy-1H-indol-2-yl)ethan-1-amine], the minimal inhibitory concentration (MIC) with K. pneumoniae ATCC 10031 (setting [4]) is more than 256 µg/mL; in the assay with E. coli ATCC 25922 (setting [5]), more than 256 µg/mL; in the assay on A. baumannii ATCC 19606 (setting [6]) it was 256 µg/mL (≈ 1350 µM); in the assay on P. Aeruginosa PAO1 [2] (setting [7]), more than 256 µg/mL. For the same molecule, in the assay on P. Aeruginosa PAO1 [1], the MIC in the Presence of EPI* came out at 256 µg/mL.
Consider `CC(N)c1cc2cc(C(F)(F)F)ccc2[nH]1` (stereo not drawn) [Example 9, 1-(5-(Trifluoromethyl)-1H-indol-2-yl)ethan-1-amine], for which the MIC was 64 µg/mL (≈ 280 µM) in the assay with K. pneumoniae ATCC 10031 (setting [4]), 128 µg/mL (≈ 561 µM) in the assay on E. coli ATCC 25922 (setting [5]), 64 µg/mL (≈ 280 µM) with A. baumannii ATCC 19606 (setting [6]) and more than 256 µg/mL with P. Aeruginosa PAO1 [2] (setting [7]). In the assay on P. Aeruginosa PAO1 [1], the MIC in the Presence of EPI* came out at 16 µg/mL.
Turning to `CC(N)c1cc2ccc(Br)cc2[nH]1` (stereo not drawn) [Example 10, 1-(6-Bromo-1H-indol-2-yl)ethan-1-amine], the MIC in the assay with K. pneumoniae ATCC 10031 (setting [4]) is 128 µg/mL (≈ 535 µM); with E. coli ATCC 25922 (setting [5]), 256 µg/mL (≈ 1070 µM); in the assay on A. baumannii ATCC 19606 (setting [6]), 128 µg/mL (≈ 535 µM); with P. Aeruginosa PAO1 [2] (setting [7]), more than 256 µg/mL. Further, in the assay with P. Aeruginosa PAO1 [1], the MIC in the Presence of EPI* was found to be 32 µg/mL.
As to `CC(N)c1cc2cc(OC(F)(F)F)ccc2[nH]1` (stereo not drawn) [Example 11, 1-(5-(Trifluoromethoxy)-1H-indol-2-yl)ethan-1-amine], the minimum inhibitory concentration (MIC) is 64 µg/mL (≈ 262 µM) in the assay with K. pneumoniae ATCC 10031 (setting [4]), 128 µg/mL (≈ 524 µM) with E. coli ATCC 25922 (setting [5]), 64 µg/mL (≈ 262 µM) in the assay on A. baumannii ATCC 19606 (setting [6]) and more than 256 µg/mL in the assay on P. Aeruginosa PAO1 [2] (setting [7]). In addition, the MIC in the Presence of EPI* in the assay on P. Aeruginosa PAO1 [1] amounted to 64 µg/mL.
As for `CC(c1cc2ccccc2[nH]1)N(C)C` (stereo not drawn) [Example 12, 1-(1H-Indol-2-yl)-N,N-dimethylethan-1-amine], the MIC in the assay with K. pneumoniae ATCC 10031 (setting [4]), with E. coli ATCC 25922 (setting [5]), in the assay with A. baumannii ATCC 19606 (setting [6]) and with P. Aeruginosa PAO1 [2] (setting [7]) was more than 256 µg/mL in each case. For the same molecule, in the assay with P. Aeruginosa PAO1 [1], the MIC in the Presence of EPI* amounted to 256 µg/mL.

These data come from US11845742B2, “Therapeutic compounds and methods to treat infection” (priority 2017, dated 2023).
